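The compound was tested at five concentrations on cells cultured in 96-well plates, with a 48-hour exposure period. The concentration for full growth arrest is given as TGI.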
Tests used:
Test in all cases: NCI tumour cell line growth inhibition, 48 h
CCRF-CEM leukemia = system: CCRF-CEM leukemia
HCT-116 colon = system: HCT-116 colon
COLO 205 colon = system: COLO 205 colon
SN12C renal = system: SN12C renal
MALME-3M melanoma = system: MALME-3M melanoma
PC-3 prostate = system: PC-3 prostate
NCI-H226 lung = system: NCI-H226 lung
SK-MEL-2 melanoma = system: SK-MEL-2 melanoma
M14 melanoma = system: M14 melanoma
SK-MEL-5 melanoma = system: SK-MEL-5 melanoma
DU-145 prostate = system: DU-145 prostate
MDA-MB-435 = system: MDA-MB-435
IGROV1 ovarian = system: IGROV1 ovarian
MOLT-4 leukemia = system: MOLT-4 leukemia
MCF7 breast = system: MCF7 breast
SK-MEL-28 melanoma = system: SK-MEL-28 melanoma
MDA-N = system: MDA-N
NCI/ADR-RES ovarian = system: NCI/ADR-RES ovarian
786-0 renal = system: 786-0 renal
HOP-92 NSCLC = system: HOP-92 NSCLC
OVCAR-8 ovarian = system: OVCAR-8 ovarian
K-562 leukemia = system: K-562 leukemia
CAKI-1 renal = system: CAKI-1 renal
NCI-H522 lung = system: NCI-H522 lung
UACC-257 melanoma = system: UACC-257 melanoma
A549 NSCLC = system: A549 NSCLC
TK-10 renal = system: TK-10 renal
SNB-19 CNS = system: SNB-19 CNS
SF-268 CNS = system: SF-268 CNS
OVCAR-3 ovarian = system: OVCAR-3 ovarian
HCT-15 colon = system: HCT-15 colon
UO-31 renal = system: UO-31 renal
OVCAR-4 ovarian = system: OVCAR-4 ovarian
A498 renal = system: A498 renal
KM12 colon = system: KM12 colon
SF-539 CNS = system: SF-539 CNS
RPMI-8226 leukemia = system: RPMI-8226 leukemia
UACC-62 melanoma = system: UACC-62 melanoma
SW-620 colon = system: SW-620 colon
ACHN renal = system: ACHN renal
MDA-MB-231 breast = system: MDA-MB-231 breast
OVCAR-5 ovarian = system: OVCAR-5 ovarian
NCI-H460 lung = system: NCI-H460 lung
SNB-75 CNS = system: SNB-75 CNS
SR leukemia = system: SR leukemia
RXF 393 renal = system: RXF 393 renal
U251 CNS = system: U251 CNS
HCC-2998 colon = system: HCC-2998 colon
HL-60(TB) leukemia = system: HL-60(TB) leukemia
HT29 colon = system: HT29 colon
T-47D breast = system: T-47D breast
SF-295 CNS = system: SF-295 CNS
NCI-H23 lung = system: NCI-H23 lung
BT-549 breast = system: BT-549 breast
SK-OV-3 ovarian = system: SK-OV-3 ovarian
HS 578T breast = system: HS 578T breast
EKVX NSCLC = system: EKVX NSCLC
HOP-62 NSCLC = system: HOP-62 NSCLC

## OCC1CCCC1O (stereo unspecified)
CCRF-CEM leukemia
  TGI: > 100 µM
HCT-116 colon
  TGI: > 100 µM
COLO 205 colon
  TGI: > 100 µM
SN12C renal
  TGI: > 100 µM
MALME-3M melanoma
  TGI: > 100 µM
PC-3 prostate
  TGI: > 100 µM
NCI-H226 lung
  TGI: > 100 µM
SK-MEL-2 melanoma
  TGI: > 100 µM
M14 melanoma
  TGI: > 100 µM
SK-MEL-5 melanoma
  TGI: > 100 µM
DU-145 prostate
  TGI: > 100 µM
MDA-MB-435
  TGI: > 100 µM
IGROV1 ovarian
  TGI: > 100 µM
MOLT-4 leukemia
  TGI: > 100 µM
MCF7 breast
  TGI: > 100 µM
SK-MEL-28 melanoma
  TGI: > 100 µM
MDA-N
  TGI: > 100 µM
NCI/ADR-RES ovarian
  TGI: > 100 µM
786-0 renal
  TGI: > 100 µM
HOP-92 NSCLC
  TGI: > 100 µM
OVCAR-8 ovarian
  TGI: > 100 µM
K-562 leukemia
  TGI: > 100 µM
CAKI-1 renal
  TGI: > 100 µM
NCI-H522 lung
  TGI: > 100 µM
UACC-257 melanoma
  TGI: > 100 µM
A549 NSCLC
  TGI: > 100 µM
TK-10 renal
  TGI: > 100 µM
SNB-19 CNS
  TGI: > 100 µM
SF-268 CNS
  TGI: > 100 µM
OVCAR-3 ovarian
  TGI: > 100 µM
HCT-15 colon
  TGI: > 100 µM
UO-31 renal
  TGI: > 100 µM
OVCAR-4 ovarian
  TGI: > 100 µM
A498 renal
  TGI: > 100 µM
KM12 colon
  TGI: > 100 µM
SF-539 CNS
  TGI: > 100 µM
RPMI-8226 leukemia
  TGI: > 100 µM
UACC-62 melanoma
  TGI: > 100 µM
SW-620 colon
  TGI: > 100 µM
ACHN renal
  TGI: > 100 µM
MDA-MB-231 breast
  TGI: > 100 µM
OVCAR-5 ovarian
  TGI: > 100 µM
NCI-H460 lung
  TGI: > 100 µM
SNB-75 CNS
  TGI: > 100 µM
SR leukemia
  TGI: > 100 µM
RXF 393 renal
  TGI: > 100 µM
U251 CNS
  TGI: > 100 µM
HCC-2998 colon
  TGI: > 100 µM
HL-60(TB) leukemia
  TGI: > 100 µM
HT29 colon
  TGI: > 100 µM
T-47D breast
  TGI: > 100 µM
SF-295 CNS
  TGI: > 100 µM
NCI-H23 lung
  TGI: > 100 µM
BT-549 breast
  TGI: > 100 µM

## O=c1[nH]c2c(c(=O)[nH]1)C(c1ccc([N+](=O)[O-])cc1)c1c([nH]c(=O)[nH]c1=O)O2
CCRF-CEM leukemia
  TGI: 90.5 µM
HCT-116 colon
  TGI: > 100 µM
COLO 205 colon
  TGI: > 100 µM
SN12C renal
  TGI: > 100 µM
PC-3 prostate
  TGI: > 100 µM
NCI-H226 lung
  TGI: > 100 µM
SK-OV-3 ovarian
  TGI: > 100 µM
SK-MEL-2 melanoma
  TGI: > 100 µM
M14 melanoma
  TGI: > 100 µM
SK-MEL-5 melanoma
  TGI: > 100 µM
DU-145 prostate
  TGI: > 100 µM
MDA-MB-435
  TGI: > 100 µM
IGROV1 ovarian
  TGI: > 100 µM
SK-MEL-28 melanoma
  TGI: > 100 µM
HS 578T breast
  TGI: > 100 µM
MDA-N
  TGI: > 100 µM
786-0 renal
  TGI: > 100 µM
EKVX NSCLC
  TGI: > 100 µM
HOP-62 NSCLC
  TGI: > 100 µM
OVCAR-8 ovarian
  TGI: > 100 µM
CAKI-1 renal
  TGI: > 100 µM
NCI-H522 lung
  TGI: 82.9 µM
UACC-257 melanoma
  TGI: > 100 µM
A549 NSCLC
  TGI: > 100 µM
TK-10 renal
  TGI: > 100 µM
SNB-19 CNS
  TGI: > 100 µM
SF-268 CNS
  TGI: > 100 µM
OVCAR-3 ovarian
  TGI: > 100 µM
HCT-15 colon
  TGI: > 100 µM
UO-31 renal
  TGI: > 100 µM
OVCAR-4 ovarian
  TGI: > 100 µM
A498 renal
  TGI: > 100 µM
KM12 colon
  TGI: > 100 µM
RPMI-8226 leukemia
  TGI: 75 µM
UACC-62 melanoma
  TGI: > 100 µM
SW-620 colon
  TGI: > 100 µM
ACHN renal
  TGI: > 100 µM
MDA-MB-231 breast
  TGI: > 100 µM
OVCAR-5 ovarian
  TGI: > 100 µM
NCI-H460 lung
  TGI: > 100 µM
RXF 393 renal
  TGI: > 100 µM
U251 CNS
  TGI: > 100 µM
HL-60(TB) leukemia
  TGI: > 100 µM
HT29 colon
  TGI: > 100 µM
SF-295 CNS
  TGI: > 100 µM
NCI-H23 lung
  TGI: > 100 µM
BT-549 breast
  TGI: > 100 µM

Reference: PubChem BioAssay (NCI)
